Laboratory results: PubChem BioAssay (NCI)
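The concentration for 50% growth inhibition is given as GI50. TGI: total growth inhibition.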

Columns and labels:
Experiment in all cases: NCI anticancer screen, dose series, 384-well format
OVCAR-5 ovarian = system: OVCAR-5 ovarian
SN12C renal = system: SN12C renal
HCT-15 colon = system: HCT-15 colon
CAKI-1 renal = system: CAKI-1 renal
SF-539 CNS = system: SF-539 CNS
NCI-H226 lung = system: NCI-H226 lung
U251 glioblastoma = system: U251 glioblastoma
MOLT-4 leukemia = system: MOLT-4 leukemia
M14 melanoma = system: M14 melanoma
HCT-116 colon = system: HCT-116 colon
SNB-19 CNS = system: SNB-19 CNS
UO-31 renal = system: UO-31 renal
A549 NSCLC = system: A549 NSCLC
A498 renal = system: A498 renal
HL-60(TB) leukemia = system: HL-60(TB) leukemia
NCI-H322M lung = system: NCI-H322M lung
SK-OV-3 ovarian = system: SK-OV-3 ovarian
SK-MEL-28 melanoma = system: SK-MEL-28 melanoma
MALME-3M melanoma = system: MALME-3M melanoma
MDA-MB-468 breast = system: MDA-MB-468 breast
EKVX NSCLC = system: EKVX NSCLC
IGROV1 ovarian = system: IGROV1 ovarian
TK-10 renal = system: TK-10 renal
UACC-62 melanoma = system: UACC-62 melanoma
OVCAR-3 ovarian = system: OVCAR-3 ovarian
NCI-H460 NSCLC = system: NCI-H460 NSCLC
NCI-H23 lung = system: NCI-H23 lung
786-0 renal = system: 786-0 renal
OVCAR-4 ovarian = system: OVCAR-4 ovarian
SNB-75 CNS = system: SNB-75 CNS
MCF7 breast = system: MCF7 breast
NCI-H522 lung = system: NCI-H522 lung
ACHN renal = system: ACHN renal
MDA-MB-435 melanoma = system: MDA-MB-435 melanoma
SF-295 CNS = system: SF-295 CNS
HS 578T breast = system: HS 578T breast
PC-3 prostate = system: PC-3 prostate
SR leukemia = system: SR leukemia
HT29 colon = system: HT29 colon
SK-MEL-2 melanoma = system: SK-MEL-2 melanoma
SK-MEL-5 melanoma = system: SK-MEL-5 melanoma
DU-145 prostate = system: DU-145 prostate
T-47D breast = system: T-47D breast
MDA-MB-231 breast = system: MDA-MB-231 breast
KM12 colon = system: KM12 colon
COLO 205 colon = system: COLO 205 colon
HOP-62 NSCLC = system: HOP-62 NSCLC
HOP-92 NSCLC = system: HOP-92 NSCLC
RXF 393 renal = system: RXF 393 renal
SF-268 CNS = system: SF-268 CNS
SW-620 colon = system: SW-620 colon
UACC-257 melanoma = system: UACC-257 melanoma
OVCAR-8 ovarian = system: OVCAR-8 ovarian
K-562 leukemia = system: K-562 leukemia
BT-549 breast = system: BT-549 breast

C=CC(=O)N1CCN([C@@H](CC2CC2)c2ccc([C@H](C)Nc3ncc4c(n3)N(CC)C(=O)OC4)cc2)CC1
GI50 (OVCAR-5 ovarian): 16.1 µM | TGI (OVCAR-5 ovarian): 30.4 µM | GI50 (SN12C renal): 16.2 µM | TGI (SN12C renal): 29.8 µM | GI50 (HCT-15 colon): 12 µM | TGI (HCT-15 colon): 28.9 µM | GI50 (CAKI-1 renal): 11.4 µM | TGI (CAKI-1 renal): 23.6 µM | GI50 (SF-539 CNS): 11.4 µM | TGI (SF-539 CNS): 23.5 µM | GI50 (NCI-H226 lung): 15.9 µM | TGI (NCI-H226 lung): 36.1 µM | GI50 (U251 glioblastoma): 15.4 µM | TGI (U251 glioblastoma): 33.4 µM | GI50 (MOLT-4 leukemia): 1.89 µM | TGI (MOLT-4 leukemia): 3.43 µM | GI50 (M14 melanoma): 14.3 µM | TGI (M14 melanoma): 27.3 µM | GI50 (HCT-116 colon): 6.57 µM | TGI (HCT-116 colon): 19.7 µM | GI50 (SNB-19 CNS): 17.2 µM | TGI (SNB-19 CNS): 31.1 µM | GI50 (UO-31 renal): 13.9 µM | TGI (UO-31 renal): 26.9 µM | GI50 (A549 NSCLC): 25.3 µM | TGI (A549 NSCLC): > 100 µM | GI50 (A498 renal): 12 µM | TGI (A498 renal): 24.4 µM | GI50 (HL-60(TB) leukemia): 1.82 µM | TGI (HL-60(TB) leukemia): 3.32 µM | GI50 (NCI-H322M lung): 14 µM | TGI (NCI-H322M lung): 27.3 µM | GI50 (SK-OV-3 ovarian): 17.9 µM | TGI (SK-OV-3 ovarian): 37.9 µM | GI50 (SK-MEL-28 melanoma): 16.6 µM | TGI (SK-MEL-28 melanoma): 30.2 µM | GI50 (MALME-3M melanoma): 19 µM | TGI (MALME-3M melanoma): 33.1 µM | GI50 (MDA-MB-468 breast): 2.82 µM | TGI (MDA-MB-468 breast): 7.69 µM | GI50 (EKVX NSCLC): 16.4 µM | TGI (EKVX NSCLC): > 100 µM | GI50 (IGROV1 ovarian): 10.3 µM | TGI (IGROV1 ovarian): 22.1 µM | GI50 (TK-10 renal): 4.36 µM | TGI (TK-10 renal): 16.6 µM | GI50 (UACC-62 melanoma): 10.6 µM | TGI (UACC-62 melanoma): 22.4 µM | GI50 (OVCAR-3 ovarian): 10.2 µM | TGI (OVCAR-3 ovarian): 21.8 µM | GI50 (NCI-H460 NSCLC): 5.15 µM | TGI (NCI-H460 NSCLC): 17 µM | GI50 (NCI-H23 lung): 15.1 µM | TGI (NCI-H23 lung): 61 µM | GI50 ([…]-0 renal): 12.9 µM | TGI (786-0 renal): 25.7 µM | GI50 (OVCAR-4 ovarian): 13.3 µM | TGI (OVCAR-4 ovarian): 26.1 µM | GI50 (SNB-75 CNS): 7.22 µM | TGI (SNB-75 CNS): 20 µM | GI50 (MCF7 breast): 9.04 µM | TGI (MCF7 breast): > 100 µM | GI50 (NCI-H522 lung): 1.36 µM | TGI (NCI-H522 lung): 4.12 µM | GI50 (ACHN renal): 13.9 µM | TGI (ACHN renal): 26.8 µM | GI50 (MDA-MB-435 melanoma): 14.3 µM | TGI (MDA-MB-435 melanoma): 27.4 µM | GI50 (SF-295 CNS): 35.3 µM | TGI (SF-295 CNS): > 100 µM | GI50 (HS 578T breast): 6.9 µM | TGI (HS 578T breast): 19.6 µM | GI50 (PC-3 prostate): 10.8 µM | TGI (PC-3 prostate): 22.7 µM | GI50 (SR leukemia): 2.94 µM | TGI (SR leukemia): 8.8 µM | GI50 (HT29 colon): 14.8 µM | TGI (HT29 colon): 28 µM | GI50 (SK-MEL-2 melanoma): 10.3 µM | TGI (SK-MEL-2 melanoma): 22 µM | GI50 (SK-MEL-5 melanoma): 13.3 µM | TGI (SK-MEL-5 melanoma): 30.1 µM | GI50 (DU-145 prostate): 12.7 µM | TGI (DU-145 prostate): 25.3 µM | GI50 (T-47D breast): 13.9 µM | TGI (T-47D breast): 28 µM | GI50 (MDA-MB-231 breast): 13.9 µM | TGI (MDA-MB-231 breast): 26.8 µM | GI50 (KM12 colon): 15.1 µM | TGI (KM12 colon): 28.5 µM | GI50 (COLO 205 colon): 17.6 µM | TGI (COLO 205 colon): 31.5 µM | GI50 (HOP-62 NSCLC): 10 µM | TGI (HOP-62 NSCLC): 27.9 µM | GI50 (HOP-92 NSCLC): 8.05 µM | TGI (HOP-92 NSCLC): 20.7 µM | GI50 (RXF 393 renal): 2.52 µM | TGI (RXF 393 renal): 12.5 µM | GI50 (SF-268 CNS): 14.4 µM | TGI (SF-268 CNS): 27.5 µM | GI50 (SW-620 colon): 13.5 µM | TGI (SW-620 colon): 26.4 µM | GI50 (UACC-257 melanoma): 13.8 µM | TGI (UACC-257 melanoma): 26.8 µM | GI50 (OVCAR-8 ovarian): 12.7 µM | TGI (OVCAR-8 ovarian): 26.1 µM | GI50 (K-562 leukemia): 3.7 µM | TGI (K-562 leukemia): 16 µM | GI50 (BT-549 breast): 5.83 µM | TGI (BT-549 breast): 18.6 µM
